For this test, the system named is IkBa and p65. Put plainly: Western blot / immunocytochemistry of TNF-induced IkBa and p65 events. It is filed as cell-based, human. As for the experimental part:
Honokiol inhibits TNF-induced activation of NF-kB. H1299 cells were incubated with […] honokiol for 12 h, treated with 0.1 nM TNF for the indicated times, and then analyzed for NF-kB activation by EMSA. (B) H1299 cells (2×10^6/ml) were incubated with […] honokiol for 12 h at 37° C., treated with 0.1 nM TNF for the indicated times at 37° C., and then tested for IkBa (upper panel) in cytosolic fractions by Western blot analysis. Equal protein loading was evaluated by b-actin (lower panel). (C) Honokiol blocks the phosphorylation and ubiquitination (D) of IkBaby TNF. Cells were preincubated with […] honokiol for 12 h, incubated with […]/ml N-acetyl-leucyl-leucyl-norleucinal (ALLN) for 30 min, and then treated with 0.1 nM TNF for 10 min. Cytoplasmic extracts were fractionated and then subjected to Western blot analysis using phospho-specific anti-IkBa antibody. The same membrane was reblotted with anti-IkBa antibody. (E) Honokiol inhibits TNF-induced IkBakinase activity. H1299 cells (2×10^6/ml) were treated with […] honokiol for 12 h and then treated with 0.1 nM TNF for the indicated time intervals. Whole-cell extracts were prepared, and 200 mg of extract was immunoprecipitated with antibodies against IKKa and IKKb. The immune complex kinase assay was then performed as described in Materials and Methods. To examine the effect of honokiol on the level of expression of IKK proteins, 30 mg of whole-cell extract was analyzed on 10% SDS-PAGE, electrotransferred, and immunoblotted with the indicated antibodies as described in Materials and Methods. (F) Honokiol inhibits TNF-induced nuclear translocation of p65. H1299 cells (2×10^6/ml) were either untreated or pretreated with […] honokiol for 12 h at 37° C. and then treated with 0.1 nM TNF for the indicated times. Nuclear extracts were prepared and analyzed by Western blotting using antibodies against p65. (G) honokiol inhibits TNF-induced nuclear translocation of p65. H1299 cells (1×10^6/ml) were first treated with […] honokiol for 12 h at 37° C. and then exposed to 0.1 nM TNF. After cytospin, immunocytochemical analysis was performed as described in Materials and Methods. […] (H) Honokiol inhibits TNF-induced phosphorylation of p65. H1299 cells (2×10^6/ml) were incubated with 25 mM honokiol for 12 h and then treated with 0.1 nM TNF for the indicated times. The cytoplasmic and nuclear extracts were analyzed by Western blotting using antibodies against the phosphorylated form of p65.
Western blot analysis. […] Cytoplasmic protein […] was resolved on 10% SDS-PAGE gel, transferred to a nitrocellulose membrane, blocked with 5% non-fat milk, and probed with specific antibodies against IkBa, posphorylated IkBa, p65, and phosphorylated p65. To determine the expression of cyclin D1, COX-2, MMP-9, cIAP-1, TRAF1, Bcl-2, Bfl-1, cFLIP, and survivin in whole-cell extracts of treated cells (2×10^6 cells in 2 ml of medium), […] of protein was resolved on SDS-PAGE and probed by Western blot with specific antibodies as per the manufacturer's recommended protocol. The blots were washed, exposed to HRP-conjugated secondary antibodies for 1 h, and finally detected by ECL reagent (Amersham Pharmacia Biotechnology, Piscataway, N.J.). The bands were quantified using a Personal Densitometer Scan v1.30 using Imagequant software version 3.3 (Molecular Dynamics).
Immunolocalization of NF-kB p65. […]
(In general: In western blotting, separated proteins are transferred to a membrane and probed.)

Take `C=CCc1ccc(O)c(-c2ccc(O)c(CC=C)c2)c1` [HNK, Honokiol]: the “TNF-induced phosphorylation of p65” value is listed as “suppressed p65 phosphorylation almost completely”. For the same compound, under “25 mM (printed) honokiol 12 h, 0.1 nM TNF”, the “TNF-dependent IkBa degradation” value was “TNF had no effect on IkBa degradation”. The “TNF-induced nuclear translocation of p65” value (Western blot analysis) is “suppressed nuclear translocation of the p65 subunit of NF-kB”. Besides, under “with ALLN, 0.1 nM TNF 10 min”, the “TNF-induced IkBa phosphorylation” value is on record as “completely suppressed it” and the “TNF-induced IkBa ubiquitination” value is “completely suppressed it”.

The record behind these values is US20080300298A1, “Honokiol Derivates For the Treatment of Proliferative Disorders” (priority 2005, published 2008).
